In patent publication US20230083885A1, “MODULATORS OF INTEGRATED STRESS RESPONSE PATHWAY” (Praxis Biotech LLC, priority 2021, published 2023):
Read-outs that look alike come from different tables or passages of the source.

What was measured:
[1] = system: Chinese hamster ovary (CHO) cells; assay: Protein synthesis assay (puromycin incorporation, Western blot); format: cell-based; settings: Cricetulus griseus, read-out: % Protein synthesis relative to untreated (1 μM test compound)
Method: Chinese hamster ovary (CHO) cells were maintained at 37° C. and 5% CO2 in Dulbecco's Modified Eagle's Media (DMEM) supplemented with 10% fetal bovine serum, 2 mM L-glutamine, 100 U/ml penicillin, and 100 μg/ml streptomycin. After reaching 80% of confluence, cells were detached and seeded on 6 well plates in complete media, allowed to recover overnight and treated for 2 hours with 1 μM of the test compound (to assess protein synthesis levels in unstressed condition), or for 2 hours with 300 nM Tg in the presence of 1 μM of the test compound (to assess the recovery of protein synthesis in a stressed condition). Cells with Tg alone were used as controls.
After the 2 hours treatments, media were replaced by adding 10 μg/ml puromycin (Sigma Aldrich #P8833) in complete media for 30 min. Media were removed and cells were lysed with SDS-PAGE lysis buffer. Lysates were transferred to 1.5 ml tubes and sonicated for 3 min and total protein amount were quantified using BCA Protein Assay Kit (Pierce). Equal amount of protein (30 μg) was loaded on SDS-PAGE gels.
A HRP-conjugated secondary antibody (Rockland) was employed to detect immune-reactive bands using enhanced chemiluminescence (ECL Western Blotting Substrate, Pierce). Quantification of protein bands was done by densitometry using ImageJ software.
The percentage levels were normalized to the media alone condition, which correspond to 100% protein synthesis. […]

ATF4 = ATF4 expression inhibition assay (ATF4 5'UTR luciferase reporter, thapsigargin-stressed); format: cell-based; settings: Homo sapiens, HEK-293T, read-out: ATF4 inhibition
Method: The ATF4 reporter was prepared by fusing the human full length 5′UTR of ATF4 (NCBI Accession No. BC022088.2) upstream of the firefly luciferase coding sequence lacking the initiator methionine. The fused sequence was cloned into pLenti-EF1a-C-Myc-DDK-IRES-Puro cloning vector (Origen #PS100085) using standard methods.
HEK293T cells carrying the ATF4 luciferase reporter were plated on 96-well plates (Nunc) at 10,000 cells per well. Cells were treated two days after seeding with 100 nM thapsigargin (Tg) (Sigma-Aldrich #T9033) in the presence of different concentrations of selected compounds ranging from 0.1 nM to 10 μM. Cells without treatment or cells treated with Tg alone were used as controls. Assay plates containing cells were incubated for 3 hours at 37° C.
Luciferase reactions were performed using Luciferase Assay System (Promega #E1501) as specified by the manufacturer. Luminescence was read with an integration time of 1 s and a gain of 110 using a Cytation-5 multi-mode microplate reader (BioTek).

[2] = unstressed CHO cells (without Tg), 1 μM test compound, 2 hours, media alone = 100%
[3] = HEK293T cells carrying ATF4 luciferase reporter, 100 nM thapsigargin, 3 hours

IC50 (ATF4; [3]) | SMILES | activity at 1 µM [1, 2] | activity at 1 µM ([1]; CHO, 2 h) | IC50 (ATF4; 3 h)
< 10 nM | O=C(N[C@H]1CC[C@H](c2nnc(-c3ccc(Cl)cc3)o2)CC1)c1ccc2cc(Cl)ccc2n1 [Compound 5, trans-6-chloro-N-(4-(5-(4-chlorophenyl)-1,3,4-oxadiazol-2-yl)cyclohexyl)quinoline-2-carboxamide] | 139% |  | 
< 10 nM | O=C(N[C@H]1CC[C@H](c2nnc(-c3ccc(Cl)cc3)o2)CC1)c1cc2cc(Cl)ccc2o1 [Compound 6, trans-5-chloro-N-(4-(5-(4-chlorophenyl)-1,3,4-oxadiazol-2-yl)cyclohexyl)benzofuran-2-carboxamide] | 111% |  | 
< 10 nM | O=C(COc1ccc(Cl)c(F)c1)N[C@H]1CC[C@H](c2nnc(-c3ccc(Cl)cc3)o2)CC1 [Compound 7, trans-2-(4-chloro-3-fluorophenoxy)-N-(4-(5-(4-chlorophenyl)-1,3,4-oxadiazol-2-yl)cyclohexyl)acetamide] | 80.9% |  | 
 | O=C(COc1ccc(Cl)cc1)N[C@H]1CC[C@H](c2nnc(-c3ccc(Cl)cc3)o2)CC1 [Compound 8, trans-2-(4-chlorophenoxy)-N-(4-(5-(4-chlorophenyl)-1,3,4-oxadiazol-2-yl)cyclohexyl)acetamide] |  | 96.9% | < 10 nM
10 to 100 nM | O=C(N[C@H]1CC[C@H](c2nnc(COc3ccc(Cl)cc3)o2)CC1)c1ccc2cc(Cl)ccc2n1 [Compound 9, trans-6-chloro-N-(4-(5-((4-chlorophenoxy)methyl)-1,3,4-oxadiazol-2-yl)cyclohexyl)quinoline-2-carboxamide] | 204% |  | 
< 10 nM | O=C(N[C@H]1CC[C@H](c2nnc(COc3ccc(Cl)cc3)o2)CC1)c1cc2cc(Cl)ccc2o1 [Compound 10, trans-5-chloro-N-(4-(5-((4-chlorophenoxy)methyl)-1,3,4-oxadiazol-2-yl)cyclohexyl)benzofuran-2-carboxamide] | 165% |  | 
10 to 100 nM | O=C(N[C@H]1CC[C@H](c2nnc(COc3ccc(Cl)cc3)o2)CC1)C1CNc2cc(Cl)ccc2O1 (stereo partly drawn) [Compound 11, trans-6-chloro-N-(4-(5-((4-chlorophenoxy)methyl)-1,3,4-oxadiazol-2-yl)cyclohexyl)-3,4-dihydro-2H-benzo[b][1,4]oxazine-2-carboxamide] | 140% |  | 
< 10 nM | O=C(COc1ccc(Cl)c(F)c1)N[C@H]1CC[C@H](c2nnc(COc3ccc(Cl)cc3)o2)CC1 [Compound 12, trans-2-(4-chloro-3-fluorophenoxy)-N-(4-(5-((4-chlorophenoxy)methyl)-1,3,4-oxadiazol-2-yl)cyclohexyl)acetamide] | 144% |  | 
< 10 nM | O=C(COc1ccc(Cl)c(F)c1)N[C@H]1CC[C@H](c2nnc(COc3ccc(Cl)c(F)c3)o2)CC1 [Compound 13, trans-2-(4-chloro-3-fluorophenoxy)-N-(4-(5-((4-chloro-3-fluorophenoxy)methyl)-1,3,4-oxadiazol-2-yl)cyclohexyl)acetamide] | 134% |  | 
< 10 nM | O=C(COc1ccc(Cl)c(F)c1)N[C@H]1CC[C@H](c2nnc(-c3ccc4cc(Cl)ccc4n3)o2)CC1 [Compound 14, trans-2-(4-chloro-3-fluorophenoxy)-N-(4-(5-(6-chloroquinolin-2-yl)-1,3,4-oxadiazol-2-yl)cyclohexyl)acetamide] | 176% |  | 
10 to 100 nM | O=C(N[C@H]1CC[C@H](c2nnc(-c3ccc(Cl)cc3)o2)CC1)c1cnc(C(F)F)cn1 [Compound 15, trans-N-(4-(5-(4-chlorophenyl)-1,3,4-oxadiazol-2-yl)cyclohexyl)-5-(difluoromethyl)pyrazine-2-carboxamide] | 103% |  | 
> 1000 nM | O=C(N[C@H]1CC[C@H](c2nnc(COc3ccc(Cl)cc3)o2)CC1)c1cnc(C(F)F)cn1 [Compound 16, trans-N-(4-(5-((4-chlorophenoxy)methyl)-1,3,4-oxadiazol-2-yl)cyclohexyl)-5-(difluoromethyl)pyrazine-2-carboxamide] | 115% |  | 
< 10 nM | O=C(COc1ccc(Cl)c(F)c1)N[C@H]1CC[C@H](c2nnc(-c3ccc(Cl)c(F)c3)o2)CC1 [Compound 17, trans-2-(4-chloro-3-fluorophenoxy)-N-(4-(5-(4-chloro-3-fluorophenyl)-1,3,4-oxadiazol-2-yl)cyclohexyl)acetamide] | 105% |  | 
< 10 nM | O=C(COc1ccc(Cl)c(F)c1)N[C@H]1CC[C@H](c2nnc(C3CNc4cc(Cl)ccc4O3)o2)CC1 (stereo partly drawn) [Compound 18, trans-N-(4-(5-(6-chloro-3,4-dihydro-2H-benzo[b][1,4]oxazin-2-yl)-1,3,4-oxadiazol-2-yl)cyclohexyl)-2-(4-chloro-3-fluorophenoxy)acetamide] | 127% |  | 
 | O=C(Nc1ccc2cc(Cl)ccc2n1)[C@H]1CC[C@H](c2nnc(-c3ccc(Cl)cc3)o2)CC1 [Compound 19, trans-4-(5-(4-chlorophenyl)-1,3,4-oxadiazol-2-yl)-N-(6-chloroquinolin-2-yl)cyclohexane-1-carboxamide] |  | 100% | 10 to 100 nM
100 to 1000 nM | O=C(Nc1ccc2cc(Cl)ccc2n1)[C@H]1CC[C@H](c2nnc(C3CCC(F)(F)CC3)o2)CC1 [Compound 28, trans-N-(6-chloroquinolin-2-yl)-4-(5-(4,4-difluorocyclohexyl)-1,3,4-oxadiazol-2-yl)cyclohexanecarboxamide] | 23.8% |  | 
> 1000 nM | O=C(Nc1ccc2cc(Cl)ccc2n1)[C@H]1CC[C@H](c2nnc(C3CCC(C(F)(F)F)CC3)o2)CC1 (stereo partly drawn) [Compound 29, trans-N-(6-chloroquinolin-2-yl)-4-(5-(4-(trifluoromethyl)cyclohexyl)-1,3,4-oxadiazol-2-yl)cyclohexanecarboxamide] | 11.5% |  | 
100 to 1000 nM | O=C(Nc1ccc2cc(Cl)ccc2n1)[C@H]1CC[C@H](c2nnc([C@H]3CC[C@H](C(F)(F)F)CC3)o2)CC1 [Compound 30, trans-N-(6-chloroquinolin-2-yl)-4-(5-(trans-4-(trifluoromethyl)cyclohexyl)-1,3,4-oxadiazol-2-yl)cyclohexanecarboxamide] | 16.7% |  | 
> 1000 nM | O=C(Nc1ccc2cc(Cl)ccc2n1)[C@H]1CC[C@H](c2nnc([C@H]3CC[C@@H](C(F)(F)F)CC3)o2)CC1 [Compound 31, trans-N-(6-chloroquinolin-2-yl)-4-(5-(cis-4-(trifluoromethyl)cyclohexyl)-1,3,4-oxadiazol-2-yl)cyclohexanecarboxamide] | 4.9% |  | 
 | O=C(Nc1ccc2cc(Cl)ccc2n1)[C@H]1CC[C@H](c2nc(-c3ccc(Cl)cc3)co2)CC1 [Compound 32, trans-4-(4-(4-chlorophenyl)oxazol-2-yl)-N-(6-chloroquinolin-2-yl)cyclohexanecarboxamide] |  | 136% | > 1000 nM
 | O=C(Nc1ccc2cc(Cl)ccc2n1)[C@H]1CC[C@H](c2nc(-c3ccc(Cl)cc3)cs2)CC1 [Compound 33, trans-4-(4-(4-chlorophenyl)thiazol-2-yl)-N-(6-chloroquinolin-2-yl)cyclohexanecarboxamide] |  | 11.4% | > 1000 nM
 | O=C(COc1ccc(Cl)c(F)c1)N[C@H]1CC[C@H](c2nc(-c3ccc(Cl)cc3)cs2)CC1 [Compound 34, trans-2-(4-chloro-3-fluorophenoxy)-N-(4-(4-(4-chlorophenyl)thiazol-2-yl)cyclohexyl)acetamide] |  | 83.4% | < 10 nM
< 10 nM | O=C(COc1ccc(Cl)c(F)c1)NN1CCC(c2nnc(-c3ccc(Cl)cc3)o2)CC1 [Compound 35, 2-(4-chloro-3-fluorophenoxy)-N-(4-(5-(4-chlorophenyl)-1,3,4-oxadiazol-2-yl)piperidin-1-yl)acetamide] | 51.6% |  | 
100 to 1000 nM | O=C(COc1ccc(Cl)c(F)c1)N[C@H]1CC[C@@H](c2cnn(-c3ccc(Cl)cc3)c2)CC1 [Compound 36, cis-2-(4-chloro-3-fluorophenoxy)-N-(4-(1-(4-chlorophenyl)-1H-pyrazol-4-yl)cyclohexyl)acetamide] | 6.4% |  | 
< 10 nM | O=C(COc1ccc(Cl)c(F)c1)N[C@H]1CC[C@H](c2cnn(-c3ccc(Cl)cc3)c2)CC1 [Compound 37, trans-2-(4-chloro-3-fluorophenoxy)-N-(4-(1-(4-chlorophenyl)-1H-pyrazol-4-yl)cyclohexyl)acetamide] | 24.3% |  | 
